Structures are written as SMILES. pIC50: −log10 of the molar value.

This experiment addresses Recombinant human ATX (Homo sapiens (Human), UniProt Q13822). The experiment is described as follows: ATX inhibition assay (choline release, Amplex Red fluorescence). Format: biochemical. The following applies: ATX 10 nM, LPC 18:1 10 μM, 37° C., 20 min pre-incubation; mean of n≧2. In a few lines: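 Activity was taken from the slope of resorufin fluorescence (530/590 nm, read every 2 min for 40 min at 37 °C) produced by choline liberated from 10 μM oleoyl LPC.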
Turning to `Cc1nc(Cc2cc(Cl)ccc2/C=C/C(=O)N2CCN(Cc3ccc(F)cc3)C[C@H]2C)no1` [Example 144, (R,E)-3-(4-Chloro-2-((5-methyl-1,2,4-oxadiazol-3-yl)methyl)phenyl)-1-(4-(4-fluorobenzyl)-2-methylpiperazin-1-yl)prop-2-en-1-one], the pIC50 is 7.85.

Regarding `Cc1nnn(Cc2cc(Cl)ccc2/C=C/C(=O)N2CCC(CCNC(=O)c3c[nH]nn3)CC2)n1` [Example 145, (E)-N-(2-(1-(3-(4-Chloro-2-((5-methyl-2H-tetrazol-2-yl)methyl)phenyl)acryloyl)piperidin-4-yl)ethyl)-1H-1,2,3-triazole-4-carboxamide], the pIC50 was 7.89.

For the compound `Cc1nnn(Cc2cc(Cl)ccc2/C=C/C(=O)N2CCC(CCNC(=O)c3c[nH]nc3C(F)(F)F)CC2)n1` [Example 146, (E)-N-(2-(1-(3-(4-Chloro-2-((5-methyl-2H-tetrazol-2-yl)methyl)phenyl)acryloyl)piperidin-4-yl)ethyl)-3-(trifluoromethyl)-1H-pyrazole-4-carboxamide], the pIC50 was 7.77.

Turning to `Cc1nnn(Cc2cc(Cl)ccc2/C=C/C(=O)N2CCC(CNC(=O)CCc3cc(O)no3)CC2)n1` [Example 147, (E)-N-((1-(3-(4-Chloro-2-((5-methyl-2H-tetrazol-2-yl)methyl)phenyl)acryloyl)piperidin-4-yl)methyl)-3-(3-hydroxyisoxazol-5-yl)propanamide], the pIC50 was 7.89.

As to `Cc1nnn(Cc2cc(Cl)ccc2/C=C/C(=O)N2CCC(CCN(C)C(=O)c3c[nH]c(=O)o3)CC2)n1` [Example 148, (E)-N-(2-(1-(3-(4-Chloro-2-((5-methyl-2H-tetrazol-2-yl)methyl)phenyl)acryloyl)piperidin-4-yl)ethyl)-N-methyl-2-oxo-2,3-dihydrooxazole-5-carboxamide], the pIC50 is 8.05.

For `Cc1nnn(Cc2cc(Cl)ccc2/C=C/C(=O)N2CCN(C3CCN(C(=O)c4c[nH]nn4)CC3)CC2)n1` [Example 149, (E)-1-(4-(1-(1H-1,2,3-Triazole-4-carbonyl)piperidin-4-yl)piperazin-1-yl)-3-(4-chloro-2-((5-methyl-2H-tetrazol-2-yl)methyl)phenyl)prop-2-en-1-one], the pIC50 was 8.31.

For `CCOc1c(NCCC2CN(C(=O)/C=C/c3ccc(Cl)cc3Cn3nnc(C)n3)CCO2)c(=O)c1=O` (centres unmarked) [Example 150, (E)-3-((2-(4-(3-(4-Chloro-2-((5-methyl-2H-tetrazol-2-yl)methyl)phenyl)acryloyl)morpholin-2-yl)ethyl)amino)-4-ethoxycyclobut-3-ene-1,2-dione], the pIC50 was 8.16.

`Cc1nnn(Cc2cc(Cl)ccc2/C=C/C(=O)N2CCC(NC(=O)CCCc3c[nH]nn3)CC2)n1` [Example 151, (E)-N-(1-(3-(4-Chloro-2-((5-methyl-2H-tetrazol-2-yl)methyl)phenyl)acryloyl)piperidin-4-yl)-4-(1H-1,2,3-triazol-4-yl)butanamide]: the pIC50 was 8.51.

Consider `Cc1nnn(Cc2cc(C(F)(F)F)ccc2/C=C/C(=O)N2CCC(NC(=O)CCCc3c[nH]nn3)CC2)n1` [Example 152, (E)-N-(1-(3-(2-((5-Methyl-2H-tetrazol-2-yl)methyl)-4-(trifluoromethyl)phenyl)acryloyl)piperidin-4-yl)-4-(1H-1,2,3-triazol-4-yl)butanamide], for which the pIC50 was 8.41.

Consider `Cc1nnn(Cc2cc(C(F)(F)F)ccc2CCC(=O)N2CCC(CCCCCc3c[nH]nn3)CC2)n1` [Example 153, 1-(4-(5-(1H-1,2,3-Triazol-4-yl)pentyl)piperidin-1-yl)-3-(2-((5-methyl-2H-tetrazol-2-yl)methyl)-4-(trifluoromethyl)phenyl)propan-1-one], for which the pIC50 was 8.70.

For `Cc1nnn(Cc2cc(C(F)(F)F)ccc2OCC(=O)N2CCC(CCCCCc3c[nH]nn3)CC2)n1` [Example 154, 1-(4-(5-(1H-1,2,3-Triazol-4-yl)pentyl)piperidin-1-yl)-2-(2-((5-methyl-2H-tetrazol-2-yl)methyl)-4-(trifluoromethyl)phenoxy)ethanone], the pIC50 is 8.62.

Take `Cc1nnn(Cc2cc(C(F)(F)F)ccc2/C=C/C(=O)N2CCC(NCCCCc3c[nH]nn3)CC2)n1` [Example 155, (E)-1-(4-((4-(1H-1,2,3-Triazol-4-yl)butyl)amino)piperidin-1-yl)-3-(2-((5-methyl-2H-tetrazol-2-yl)methyl)-4-(trifluoromethyl)phenyl)prop-2-en-1-one]: the pIC50 is 7.89.

`Cc1nnn(Cc2cc(C(F)(F)F)ccc2/C=C/C(=O)N2CCC(NC(=O)CCCCCc3cnn[nH]3)CC2)n1` [Example 156, (E)-N-(1-(3-(2-((5-Methyl-2H-tetrazol-2-yl)methyl)-4-(trifluoromethyl)phenyl)acryloyl)piperidin-4-yl)-6-(1H-1,2,3-triazol-5-yl)hexanamide]: the pIC50 is 8.28.

With `Cc1nnn(Cc2cc(C(F)(F)F)ccc2/C=C/C(=O)N2CCC(CCOCCc3cnn[nH]3)CC2)n1` [Example 157, (E)-1-(4-(2-(2-(1H-1,2,3-Triazol-5-yl)ethoxy)ethyl)piperidin-1-yl)-3-(2-((5-methyl-2H-tetrazol-2-yl)methyl)-4-(trifluoromethyl)phenyl)prop-2-en-1-one], the pIC50 is 8.04.

One may read the pIC50 as −log10 of the IC50, conventionally taken in molar units.

Values taken from patent publication US9763957B2, “Autotaxin inhibitors” (Novartis AG, priority 2013, dated 2017).
